Laboratory results reported in patent publication US20090081194A1, “COMPOSITIONS AND METHODS FOR REDUCING RISK OF DEVELOPMENT, OR SEVERITY, OF INAPPROPRIATE IMMUNE RESPONSE IN EYES” (priority 2007, published 2009).

How the values were obtained:
TLR9 [1] = target: T1, TLR9 (Homo sapiens, UniProt Q9NR96); settings: Bhattacharjee et al. 2006; Macfarlane et al. 1998; cited from earlier work
T1 sequence (Q9NR96 26-1032): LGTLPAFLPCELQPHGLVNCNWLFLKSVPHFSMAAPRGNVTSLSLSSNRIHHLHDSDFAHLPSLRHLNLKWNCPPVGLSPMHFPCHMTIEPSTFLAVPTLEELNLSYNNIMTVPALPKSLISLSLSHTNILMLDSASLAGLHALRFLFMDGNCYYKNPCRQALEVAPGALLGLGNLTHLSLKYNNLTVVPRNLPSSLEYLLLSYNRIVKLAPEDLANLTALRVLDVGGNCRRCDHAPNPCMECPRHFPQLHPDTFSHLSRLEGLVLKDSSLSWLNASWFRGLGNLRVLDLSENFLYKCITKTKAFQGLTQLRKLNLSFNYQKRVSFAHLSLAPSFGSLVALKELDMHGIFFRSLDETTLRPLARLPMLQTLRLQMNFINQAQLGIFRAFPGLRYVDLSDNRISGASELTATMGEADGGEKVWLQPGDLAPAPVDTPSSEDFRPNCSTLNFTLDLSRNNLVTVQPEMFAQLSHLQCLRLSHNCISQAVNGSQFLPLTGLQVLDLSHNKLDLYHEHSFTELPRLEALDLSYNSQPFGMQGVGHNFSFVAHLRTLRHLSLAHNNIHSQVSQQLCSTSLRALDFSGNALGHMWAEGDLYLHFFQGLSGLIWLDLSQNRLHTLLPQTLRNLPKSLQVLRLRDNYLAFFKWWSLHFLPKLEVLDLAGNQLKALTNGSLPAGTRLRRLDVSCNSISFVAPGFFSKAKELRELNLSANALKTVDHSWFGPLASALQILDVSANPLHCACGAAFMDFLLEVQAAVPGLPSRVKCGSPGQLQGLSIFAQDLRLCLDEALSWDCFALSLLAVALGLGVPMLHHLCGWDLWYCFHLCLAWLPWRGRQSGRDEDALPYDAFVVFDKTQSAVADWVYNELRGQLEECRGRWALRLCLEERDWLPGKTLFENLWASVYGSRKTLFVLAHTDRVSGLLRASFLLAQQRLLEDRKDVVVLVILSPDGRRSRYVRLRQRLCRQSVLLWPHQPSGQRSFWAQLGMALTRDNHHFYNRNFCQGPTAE

[2] = tested on: HCEL, a human corneal epithelial cell line; assay: TLR ligand-induced CXCL8 (IL-8) release, HCEL cell line; type: cell-based; settings: inhibitor 1 hour before, FIG. 7
Text: (§1) Three human cell lines representative of immune responsive cells of the ocular surface (HCEL, a human corneal epithelial cell line representative of cells present on the ocular surface; HL-60, a neutrophil-like cell line representative of neutrophils present in the tear layer, especially in the closed eye; and U937, a macrophage cell line representative of dendritic cells of the cornea, especially of those at the limbus) were exposed to various concentrations of compositions of the present invention containing the inhibitory ODN TTAGGG (InvivoGen, San Diego, Calif.) and vitamin D (1α,25-Dihydroxyvitamin D3, Sigma-Aldrich, St. Louis, Mo.) and control compositions containing prednisolone (1,4-Pregnadiene-11β,17α,21-triol-3,20-dione, Sigma-Aldrich, St. Louis, Mo.) for 1 hour prior to activation by the TLR ligand Pam3Cys for 6 hour, flagellin (flagellin purified from Salmonella typhimurium, InvivoGen, San Diego, Calif.) for 24 hr, or the stimulatory CpG type B ODN 2006 (Invivogen, San Diego, Calif.) for 24 hours. After incubation at 37° C., supernates were collected for ELISA assay (R&D Systems, Minneapolis, Minn.) for the pro-inflammatory cytokine CXCL8 (“IL-8”). Both the inhibitory ODN TTAGGG and vitamin D inhibited cytokine response to TLR ligand activation of each cell line in an inhibitor-specific manner. […] Inhibition of the stimulatory ODN CpGB ODN 2006 was only tested with inhibitory ODN TTAGGG on U937 cells.

[3] = tested on: HL-60, a neutrophil-like cell line; assay: TLR ligand-induced CXCL8 (IL-8) release, HL-60 cell line; type: cell-based, human; settings: inhibitor 1 hour before, FIG. 7
Text: as §1

[4] = tested on: U937, a macrophage cell line; assay: TLR ligand-induced CXCL8 (IL-8) release, U937 cell line; type: cell-based, human; settings: FIG. 7
Text: as §1

TLR2 = settings: monocytes; K. Sadeghi et al. 2006; cited from earlier work
TLR4 = settings: monocytes; K. Sadeghi et al. 2006; cited from earlier work
TLR9 [5] = target: T1, TLR9; settings: Gursel et al. 2003; Stunz et al. 2002; cited from earlier work
U937 cells = settings: H. Mitsuzawa et al. 2006; cited from earlier work
NF-κB = settings: LPS-elicited; H. Mitsuzawa et al. 2006; cited from earlier work
[6] = flagellin activation 24 hr, inhibitor 1 hour before

Molecule: Nc1ccnc2ccccc12 [4-aminoquinoline]
- immunostimulatory action of CpG ODN (TLR9 [1]): block the immunostimulatory action of CpG ODN

Molecule: Nc1c2ccccc2nc2ccccc12 [9-aminoacridine]
- immunostimulatory action of CpG ODN (TLR9 [1]): block the immunostimulatory action of CpG ODN

Molecule: C[C@]12C=CC(=O)C=C1CC[C@@H]1[C@@H]2[C@@H](O)C[C@@]2(C)[C@H]1CC[C@]2(O)C(=O)CO [Prednisolone, 1,4-Pregnadiene-11β,17α,21-triol-3,20-dione]
- CXCL8 (IL-8) cytokine response ([2]; Pam3Cys activation 6 hour): inhibited
- CXCL8 (IL-8) cytokine response ([2]; flagellin activation 24 hr): inhibited
- CXCL8 (IL-8) cytokine response ([3]; Pam3Cys activation 6 hour): inhibited
- CXCL8 (IL-8) cytokine response ([3]; flagellin activation 24 hr): inhibited
- CXCL8 (IL-8) cytokine response [4, 6]: inhibited

Molecule: C=C1/C(=C\C=C2/CCC[C@]3(C)[C@@H]([C@H](C)CCCC(C)(C)O)CC[C@@H]23)C[C@@H](O)C[C@@H]1O [Vitamin D, 1α,25-Dihydroxyvitamin D3]
- CXCL8 (IL-8) cytokine response ([2]; Pam3Cys activation 6 hour): reduced the cytokine response
- CXCL8 (IL-8) cytokine response ([3]; flagellin activation 24 hr): reduced the cytokine response
- CXCL8 (IL-8) cytokine response [4, 6]: reduced the cytokine response
- expression of TLR2 (TLR2): diminishes the expression
- expression of TLR4 (TLR4): diminishes the expression

Molecule: CCN(CC)CCCC(C)Nc1ccnc2cc(Cl)ccc12 (stereo not drawn) [chloroquine]
- immunostimulatory action of CpG ODN (TLR9 [1]): block the immunostimulatory action of CpG ODN

Molecule: CCN(CCO)CCCC(C)Nc1ccnc2cc(Cl)ccc12 (stereo not drawn) [hydroxychloroquine]
- immunostimulatory action of CpG ODN (TLR9 [1]): block the immunostimulatory action of CpG ODN

Molecule: CCN(CC)CCCC(C)Nc1c2ccc(Cl)cc2nc2ccc(OC)cc12 (stereo not drawn) [quinacrine]
- immunostimulatory action of CpG ODN (TLR9 [1]): block the immunostimulatory action of CpG ODN

Molecule: TTAGGG (listed as Homo sapiens) [ODN TTTAGGG]
- CXCL8 (IL-8) cytokine response ([2]; Pam3Cys activation 6 hour): reduced the cytokine response
- CXCL8 (IL-8) cytokine response ([3]; Pam3Cys activation 6 hour): reduced the cytokine response
- CXCL8 (IL-8) cytokine response ([4]; Pam3Cys activation 6 hour, inhibitor 1 hour before): reduced the cytokine response
- CXCL8 (IL-8) cytokine response ([4]; stimulatory CpG type B ODN 2006 activation 24 hours): reduced the cytokine response
- colocalization of CpG DNA with TLR9 within endosomal vesicles (TLR9 [5]): block the colocalization

Molecule: sTLR4: soluble form of a CD14-binding extracellular domain of TLR4
- LPS-elicited IL-8 release (U937 cells): effective in inhibiting
- NF-κB activation (NF-κB): effective in inhibiting

B1: sMD-2: soluble form of MD-2 (protein, UniProt Q9Y6Y9 19-160, looked up)
Lymphocyte antigen 96: QKQYWVCNSSDASISYTYCDKMQYPISINVNPCIELKRSKGLLHIFYIPRRDLKQLYFNLYITVNTMNLPKRKEVICRGSDDDYSFCRALKGETVNTTISFSFKGIKFSKGKYKCVVEAISGSPEEMLFCLEFVILHQPNSN
- LPS-elicited IL-8 release (U937 cells): effective in inhibiting
- NF-κB activation (NF-κB): effective in inhibiting
